Numbers after ± are expanded uncertainties.
Tests used:
[1] = wn = mass fraction of the nth substance listed; settings: 298.15 K, 100 kPa, Liquid, Vibrating tube method
[2] = mn = molality of the nth substance listed, in mol/kg; settings: 298.15 K, 100 kPa, Liquid, Alternating current cell with electrodes
[3] = refractive index (Na D-line) (dimensionless); wn = mass fraction of the nth substance listed; settings: 298.15 K, 100 kPa, Liquid, Standard Abbe refractometry
[4] = refractive index (Na D-line) (dimensionless); settings: 298.15 K; 100 kPa; Liquid; Standard Abbe refractometry

Structure (SMILES): CCCCn1cc[n+](C)c1.N[C@@H](CCC(=O)O)C(=O)[O-] [1-butyl-3-methylimidazolium (S)-2-amino-4-carboxybutanoate] + O
- mass density ([1]; w1 = 0.111): 1022.7 ± 1 kg/m3
- mass density ([1]; w1 = 0.183): 1038.8 ± 1 kg/m3
- mass density ([1]; w1 = 0.273): 1058.6 ± 1 kg/m3
- mass density ([1]; w1 = 0.353): 1075.4 ± 1 kg/m3
- mass density ([1]; w1 = 0.42): 1091 ± 1 kg/m3
- mass density ([1]; w1 = 0.491): 1105.2 ± 1 kg/m3
- mass density ([1]; w1 = 0.561): 1122.2 ± 1 kg/m3
- mass density ([1]; w1 = 0.628): 1136.6 ± 1 kg/m3
- mass density ([1]; w1 = 0.717): 1153.7 ± 1 kg/m3
- mass density ([1]; w1 = 0.773): 1167.1 ± 1 kg/m3
- mass density ([1]; w1 = 0.836): 1181.6 ± 1 kg/m3
- mass density ([1]; w1 = 0.863): 1185.8 ± 1 kg/m3
- electrical conductivity ([2]; m1 = 0.061): 0.277 ± 0.0052 S/m
- electrical conductivity ([2]; m1 = 0.101): 0.364 ± 0.0059 S/m
- electrical conductivity ([2]; m1 = 0.142): 0.466 ± 0.0065 S/m
- electrical conductivity ([2]; m1 = 0.196): 0.577 ± 0.0069 S/m
- electrical conductivity ([2]; m1 = 0.253): 0.676 ± 0.0076 S/m
- electrical conductivity ([2]; m1 = 0.361): 0.869 ± 0.0094 S/m
- electrical conductivity ([2]; m1 = 0.439): 1.01 ± 0.011 S/m
- electrical conductivity ([2]; m1 = 0.541): 1.13 ± 0.011 S/m
- electrical conductivity ([2]; m1 = 0.628): 1.205 ± 0.012 S/m
- electrical conductivity ([2]; m1 = 0.715): 1.27 ± 0.013 S/m
- electrical conductivity ([2]; m1 = 0.848): 1.37 ± 0.014 S/m
- electrical conductivity ([2]; m1 = 0.963): 1.431 ± 0.014 S/m
- refractive index ([3]; w1 = 0.05): 1.3448 ± 0.0004
- refractive index ([3]; w1 = 0.103): 1.3584 ± 0.0004
- refractive index ([3]; w1 = 0.152): 1.3724 ± 0.0004
- refractive index ([3]; w1 = 0.2): 1.3838 ± 0.0004
- refractive index ([3]; w1 = 0.299): 1.4025 ± 0.0004
- refractive index ([3]; w1 = 0.377): 1.4179 ± 0.0004
- refractive index ([3]; w1 = 0.492): 1.4473 ± 0.0004
- refractive index ([3]; w1 = 0.576): 1.4684 ± 0.0004

Structure (SMILES): CCCCCCCC[n+]1ccn(C)c1.[Cl-] [1-methyl-3-octylimidazolium chloride] + O
- electrical conductivity ([2]; m1 = 0.03): 0.245 ± 0.012 S/m
- electrical conductivity ([2]; m1 = 0.06): 0.425 ± 0.011 S/m
- electrical conductivity ([2]; m1 = 0.124): 0.712 ± 0.011 S/m
- electrical conductivity ([2]; m1 = 0.18): 0.901 ± 0.011 S/m
- electrical conductivity ([2]; m1 = 0.242): 1.03 ± 0.011 S/m
- electrical conductivity ([2]; m1 = 0.284): 1.1 ± 0.011 S/m
- electrical conductivity ([2]; m1 = 0.319): 1.123 ± 0.011 S/m
- electrical conductivity ([2]; m1 = 0.352): 1.18 ± 0.012 S/m
- electrical conductivity ([2]; m1 = 0.389): 1.204 ± 0.012 S/m
- electrical conductivity ([2]; m1 = 0.421): 1.228 ± 0.012 S/m
- electrical conductivity ([2]; m1 = 0.48): 1.26 ± 0.013 S/m
- electrical conductivity ([2]; m1 = 0.51): 1.28 ± 0.013 S/m
- electrical conductivity ([2]; m1 = 0.541): 1.301 ± 0.013 S/m

Structure (SMILES): O [water]
- refractive index [4]: 1.3325 ± 0.0004

Source: the NIST ThermoML archive (doi:10.1021/acs.jced.5b00948)
